Measurements as given in patent US11357752B2, “Carolacton and derivatives thereof for use in the treatment of cell proliferation disorders” (Helmholtz-Zentrum für Infektionsforschung GmbH, priority 2017, dated 2022).
pKd: −log10 of the molar value.

Target: T1, hsMTHFD2 (Homo sapiens, UniProt P13995)
T1 construct: His-tag (vector pHis-TEV); made in house; host or cells: E. coli BL21 (DE3)
T1 sequence (P13995 36-350): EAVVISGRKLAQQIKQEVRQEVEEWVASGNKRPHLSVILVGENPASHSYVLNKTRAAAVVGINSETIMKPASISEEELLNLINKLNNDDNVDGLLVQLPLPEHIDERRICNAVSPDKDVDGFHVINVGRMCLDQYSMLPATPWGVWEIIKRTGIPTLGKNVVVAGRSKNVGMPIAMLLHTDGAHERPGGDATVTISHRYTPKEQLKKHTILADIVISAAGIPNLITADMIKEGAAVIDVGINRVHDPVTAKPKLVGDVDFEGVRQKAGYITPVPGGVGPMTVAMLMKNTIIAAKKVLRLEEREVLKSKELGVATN
Test: Surface plasmon resonance assay
Type: binding
Settings: read-out: KD (SPR)
Protocol: All surface plasmon resonance (SPR) experiments described in this study were performed on a Biacore X100 system. Different FoIDs with or without His-tag were coupled on CM5 sensor chips (GE Healthcare) by the amine coupling method using a kit from GE Healthcare Life Sciences (Freiburg, Germany). A pH scouting process was performed before protein immobilization to test the most appropriate buffer and the protein concentration for protein coupling. Finally, 20 μg/mL of ecFoID in 10 mM maleate buffer (pH 6.8), 30 μg/mL of ecFoID Q98H in 10 mM maleate buffer (pH 6.3), 40 μg/mL of ecFoID K54N in 10 mM maleate buffer (pH 5.8), 20 μg/mL of spFoID in 10 mM maleate buffer (pH 6.0) and 15 μg/mL of MTHFD2 (His-tag cleaved) in 10 mM maleate buffer (pH 6.8) were used for coupling. In the protein immobilization procedure, the contact time was calculated based on the pH scouting results to achieve -3000-5000 relative resonance units (RU). The buffer used in the SPR assays was 1×HBS-P buffer (10 mM HEPES pH 7.4, 150 mM NaCl, 0.05% Tween 20). The 1 mM stock solution of carolacton was prepared in 1×HBS-P buffer and diluted to different concentration ranges by two-fold serial dilution. In the SPR assay, the association time was 180 s and the dissociation time was 600 s. Data analysis was performed using the Biacore evaluation software. […]

Compound `CO[C@H](CC(=O)O)[C@@H](C)C(=O)[C@H](C)/C=C(\C)[C@H]1OC(=O)[C@H](O)[C@H](O)/C=C/[C@H](C)CCC[C@@H]1C` [Carolacton, carolacton] has a pKd of 7.72.
